The record followed here is publication PMC8659069, “Optimization of 4-Anilinoquinolines as Dengue Virus Inhibitors” (Molecules, 2021).

Data set [1] deals with DENV2. Kind of data set: microbe, parasite or virus in culture. It is filed as cell-based, dengue virus (DENV2, New Guinea C strain). Particulars: for EC50: read-out: DENV Inhibition EC50; for EC90: read-out: DENV Inhibition EC90.
In data set [2] the test system is VEEV (TC-83). The experiment in a line: microbe, parasite or virus in culture. The conditions noted are these: for EC50: read-out: VEEV Inhibition EC50; for EC90: read-out: VEEV Inhibition EC90. It is filed as cell-based, Venezuelan Equine Encephalitis virus.
Data set [3] in a line: in vitro. The conditions noted are these: human.
The nature of data set [4]: in vitro. Particulars: human. This is another data set of the same source.
Data set [5] in a line: in vitro. Particulars: African green monkey.
[6] abbreviates: Dengue virus, DENV2, Huh-7, 48 h.
[7] abbreviates: Venezuelan equine encephalitis virus, U-87 MG, 18 h.

Read-outs that look alike come from different tables or passages of the source.

In general, EC50 refers to the concentration giving half of the maximal effect. As a reminder, the EC90 is the point of the concentration-response curve where the effect stands at 90%. Regarding `O=C1NCc2ccc(Nc3ccnc4ccc(Br)cc34)cc21` [Compound 52, 6-((6-bromoquinolin-4-yl)amino)isoindolin-1-one], the EC50 in data set [1] (setting [6]) is 0.64 µM; in data set [2] (setting [7]), 3.6 µM. The values for the EC90 in data set [1] (setting [6]), in data set [1] and in data set [2] (setting [7]) were 1.51 µM, 1.5 µM and over 10 µM, respectively. Besides, the “reduction in potency against VEEV relative to DENV” value in data set [2] is reported as 4-8 fold. In data set [3], this molecule had a CC50 at 48 h of over 10 µM. Also, the CC50 in data set [4] and in data set [5] was over 10 µM throughout.
Consider `O=c1[nH]c2cc(Nc3ccnc4ccc(Br)cc34)ccc2o1` [Compound 54], for which the EC50 in data set [1] (setting [6]) was over 10 µM. The CC50 in data set [3] was over 10 µM.
Consider `COc1ccc2nccc(Nc3cccc(O)c3)c2c1` [Compound 16], for which the EC50 in data set [1] (setting [6]) was over 10 µM. In data set [3], this molecule showed a CC50 of over 10 µM.
Regarding `Fc1cc2cn[nH]c2cc1Nc1ccnc2ccc(Br)cc12` [Compound 50, 6-bromo-N-(5-fluoro-1H-indazol-6-yl)quinolin-4-amine], the EC50 in data set [1] (setting [6]) stood at 0.69 µM; in data set [2] (setting [7]), 2.3 µM. Besides, the EC90 came out at 3.98 µM in data set [1] (setting [6]), 4 µM in data set [1] and 9.6 µM in data set [2] (setting [7]). Further, the “reduction in potency against VEEV relative to DENV” value in data set [2] is 4-8 fold. For the same molecule, the CC50 in data set [3], in data set [4] and in data set [5] was over 10 µM each time.
Turning to `FC1(F)Oc2cccc(Nc3ccnc4ccc(Br)cc34)c2O1` [Compound 34], the EC50 in data set [1] (setting [6]) was 7.1 µM. Besides, the CC50 in data set [3] was over 10 µM.
Consider `CN(C)c1cccc(Nc2ccnc3ccc(C(F)(F)F)cc23)c1` [Compound 9], for which the EC50 in data set [1] (setting [6]) was 2.3 µM. This molecule gave a CC50 in data set [3] of over 10 µM.
For `CCN(CC)CCNC(=O)c1c(C)[nH]c(/C=C2\C(=O)Nc3ccc(F)cc32)c1C` [Sunitinib, sunitinib, reference compound], the EC50 in data set [1] (setting [6]) came out at 1.1 µM; in data set [2] (setting [7]), 4.4 µM. Moreover, the EC90 in data set [1] (setting [6]) and in data set [2] (setting [7]) was over 10 µM throughout. Moreover, the CC50 in data set [3], in data set [4] and in data set [5] was over 10 µM throughout.
As for `CS(=O)(=O)c1ccc2nccc(Nc3cccc(O)c3)c2c1` [Compound 18], in data set [1] (setting [6]), the EC50 was over 10 µM. Moreover, the CC50 in data set [3] was over 10 µM.
Take `Brc1ccc2nccc(Nc3cccc4c3COC4)c2c1` [Compound 31]: the EC50 in data set [1] (setting [6]) was over 10 µM. For the same molecule, in data set [3], the CC50 was over 10 µM.
Turning to `Oc1cccc(Nc2ccnc3ccc(C(F)(F)F)cc23)c1` [Compound 5], in data set [1] (setting [6]), the EC50 amounted to 2.7 µM. Also, the CC50 in data set [3] was over 10 µM.
The like results for `FS(F)(F)(F)(F)c1cccc(Nc2ccnc3ccc(Br)cc23)c1` [Compound 25] were, in that order, 1.5 µM and over 10 µM.
Turning to `COc1cccc(Nc2ccnc3ccc(Br)cc23)c1OC` [Compound 33], the EC50 in data set [1] (setting [6]) was 7.8 µM. The CC50 at 48 h in data set [3] is over 10 µM.
Turning to `CC(C)(C)c1cccc(Nc2ccnc3ccc(Br)cc23)c1` [Compound 27], in data set [1] (setting [6]), the EC50 came to 0.94 µM. In addition, in data set [3], the CC50 was determined as 6 µM.
`Cn1ncc2c(Nc3ccnc4ccc(Br)cc34)cccc21` [Compound 47]: the 50% effective concentration (EC50) in data set [1] (setting [6]) was about 5 µM; in data set [1], 5.4 µM. In data set [3], this molecule returned a CC50 at 48 h of over 10 µM.
As for `OCc1cccc(Nc2ccnc3ccc(C(F)(F)F)cc23)c1` [Compound 10], the EC50 in data set [1] (setting [6]) turned out to be 6.6 µM. Further, the CC50 in data set [3] is over 10 µM.
Regarding `Brc1ccc2nccc(Nc3cccc4nsnc34)c2c1` [Compound 45], in data set [1] (setting [6]), the EC50 came to 5.8 µM. The same molecule came in with a CC50 at 48 h in data set [3] of over 10 µM.
On to `Brc1ccc2nccc(Nc3cccc4oncc34)c2c1` [Compound 40], for which, in data set [1] (setting [6]), the concentration giving a half-maximal response (EC50) was over 10 µM. Also, the CC50 at 48 h in data set [3] was over 10 µM.
With `Brc1ccc2nccc(Nc3cccc4[nH]ncc34)c2c1` [Compound 48], the EC50 in data set [1] (setting [6]) turned out to be 2.1 µM. Also, the CC50 at 48 h in data set [3] is over 10 µM.
Take `Brc1ccc2nccc(Nc3cccc4c3CCO4)c2c1` [Compound 35]: in data set [1] (setting [6]), the EC50 is 0.95 µM. This molecule displayed a CC50 in data set [3] of over 10 µM.
As for `Cn1c(=O)[nH]c2cc(Nc3ccnc4ccc(Br)cc34)ccc21` [Compound 55], in data set [1] (setting [6]), the EC50 came out at 7.1 µM. The same molecule yielded a CC50 at 48 h in data set [3] of over 10 µM.
The like results for `O=S1(=O)Cc2ccc(Nc3ccnc4ccc(Br)cc34)cc2C1` [Compound 56] were, in that order, 6.3 µM and over 10 µM.
For `Brc1ccc2nccc(Nc3cccc4c3OCC4)c2c1` [Compound 36] the same measures were 5.7 µM and over 10 µM.
Regarding `Brc1ccc2nccc(Nc3ccc4cn[nH]c4c3)c2c1` [Compound 49], the EC50 in data set [1] (setting [6]) was determined as 1.8 µM. In addition, in data set [3], the CC50 was over 10 µM.
For `Brc1ccc2nccc(Nc3cccc4cnoc34)c2c1` [Compound 39], in data set [1] (setting [6]), the EC50 is over 10 µM. For the same molecule, in data set [3], the CC50 at 48 h is over 10 µM.
`Brc1ccc2nccc(Nc3cccc4sccc34)c2c1` [Compound 43]: the EC50 in data set [1] (setting [6]) is 2.9 µM. Besides, the CC50 in data set [3] is over 10 µM.
Consider `CNc1cccc(Nc2ccnc3ccc(Br)cc23)c1` [Compound 21, N^1-(6-bromoquinolin-4-yl)-N^3-methylbenzene-1,3-diamine], for which the “selectivity index window (CC50/EC50, DENV, Huh7)” value in data set [1] was 22 fold. Moreover, the EC50 in data set [1] (setting [6]) is 0.24 µM; in data set [2] (setting [7]), 1.03 µM; in data set [2], 1 µM. Further, the figures for the EC90 in data set [1] (setting [6]), in data set [2] (setting [7]) and in data set [2] were 0.69 µM, 10.7 µM and over 10 µM, respectively. The “reduction in potency against VEEV relative to DENV” value in data set [2] is 4-8 fold. In data set [5], the CC50 was over 10 µM.
On to `Nc1cccc(Nc2ccnc3ccc(C(F)(F)F)cc23)c1` [Compound 7], for which the EC50 in data set [1] (setting [6]) came to 5.9 µM. This molecule also had a CC50 in data set [3] of over 10 µM.
Turning to `Brc1ccc2nccc(Nc3ccc4c(c3)COC4)c2c1` [Compound 29], the EC50 in data set [1] (setting [6]) was over 10 µM. The same molecule returned a CC50 in data set [3] of over 10 µM.
`O=[N+]([O-])c1cccc(Nc2ccnc3ccc(C(F)(F)F)cc23)c1` [Compound 6]: in data set [1] (setting [6]), the EC50 was over 10 µM. The same molecule had a CC50 in data set [3] of over 10 µM.
`Brc1ccc2nccc(Nc3cccc4ncoc34)c2c1` [Compound 41]: the EC50 in data set [1] (setting [6]) came to 3.2 µM. In data set [3], this molecule registered a CC50 of over 10 µM.
For the molecule `Oc1cccc(Nc2ccnc3ccccc23)c1` [Compound 14], the EC50 in data set [1] (setting [6]) is over 10 µM. Further, the CC50 in data set [3] was over 10 µM.
`Brc1ccc2nccc(Nc3cccc4nonc34)c2c1` [Compound 44]: the EC50 in data set [1] (setting [6]) came out at 9.2 µM. The same molecule had a CC50 at 48 h in data set [3] of over 10 µM.
With `Brc1ccc2nccc(Nc3cccc4scnc34)c2c1` [Compound 42], in data set [1] (setting [6]), the EC50 is over 10 µM. The CC50 in data set [3] is over 10 µM.
Regarding `OCc1cccc(Nc2ccnc3ccc(Br)cc23)c1` [Compound 23], the EC50 in data set [1] (setting [6]) turned out to be 3.7 µM. Besides, in data set [3], the CC50 was over 10 µM.
As to `Brc1ccc2nccc(Nc3ccc4c(c3)OCO4)c2c1` [Compound 28], the EC50 in data set [1] (setting [6]) worked out at 1.7 µM. Further, the CC50 in data set [3] was determined as 8.6 µM.
For `COc1cccc(Nc2ccnc3ccc(S(C)(=O)=O)cc23)c1` [Compound 17] the same measures were over 10 µM and over 10 µM.
As to `Fc1ccc2c(c1Nc1ccnc3ccc(Br)cc13)OCO2` [Compound 32], the EC50 in data set [1] (setting [6]) stood at 1.9 µM. The molecule also came in with a CC50 at 48 h in data set [3] of over 10 µM.
Consider `Cn1nnc2c(Nc3ccnc4ccc(Br)cc34)cccc21` [Compound 46], for which the figures for the EC50 in data set [1] (setting [6]) and in data set [1] were about 5 µM and 5.5 µM, respectively. Besides, the CC50 at 48 h in data set [3] was over 10 µM.
In the case of `COc1cccc(Nc2ccnc3ccccc23)c1` [Compound 13], the EC50 in data set [1] (setting [6]) is 2.5 µM. In data set [3], this molecule registered a CC50 of over 10 µM.
Turning to `O=c1[nH]c2ccc(Nc3ccnc4ccc(Br)cc34)cc2[nH]1` [Compound 53], the EC50 in data set [1] (setting [6]) was over 10 µM. In data set [3], the CC50 at 48 h is over 10 µM.
Consider `CC(C)(C)Oc1cccc(Nc2ccnc3ccc(Br)cc23)c1` [Compound 26], for which the EC50 in data set [1] (setting [6]) was 2.3 µM. The CC50 in data set [3] came to 9.2 µM.
For `O=[N+]([O-])c1cccc(Nc2ccnc3ccc(Br)cc23)c1` [Compound 19] the same measures were over 10 µM and over 10 µM.
For the molecule `CNc1cccc(Nc2ccnc3ccc(C(F)(F)F)cc23)c1` [Compound 8], in data set [1] (setting [6]), the EC50 was 8.9 µM. Further, the CC50 in data set [3] is over 10 µM.
`OCc1ccccc1Nc1ccnc2ccc(Br)cc12` [Compound 24]: the EC50 in data set [1] (setting [6]) was 7.1 µM. Besides, the CC50 in data set [3] was over 10 µM.
In the case of `Brc1ccc2nccc(Nc3ccc4[nH]ncc4c3)c2c1` [Compound 51], the concentration giving a half-maximal response (EC50) in data set [1] (setting [6]) came out at 1.2 µM. This molecule displayed a CC50 at 48 h in data set [3] of over 10 µM.
Regarding `Nc1cccc(Nc2ccnc3ccc(Br)cc23)c1` [Compound 20], the EC50 in data set [1] (setting [6]) is over 10 µM. The molecule also registered a CC50 in data set [3] of over 10 µM.
As to `COc1cccc(Nc2ccnc3ccc(Br)cc23)c1` [Compound 11], the EC50 in data set [1] (setting [6]) worked out at 0.84 µM. Further, the CC50 in data set [3] is over 10 µM.
The like results for `Brc1ccc2nccc(Nc3cccc4c3OCO4)c2c1` [Compound 30] were, in that order, over 10 µM and over 10 µM.
As to `CN(C)c1cccc(Nc2ccnc3ccc(Br)cc23)c1` [Compound 22], the EC50 in data set [1] (setting [6]) is over 10 µM. The molecule also had a CC50 in data set [3] of over 10 µM.
Consider `COc1cccc(Nc2ccnc3ccc(OC)cc23)c1` [Compound 15], for which, in data set [1] (setting [6]), the EC50 turned out to be 4.4 µM. Further, the CC50 in data set [3] is over 10 µM.
As for `COc1cccc(Nc2ccnc3ccc(C(F)(F)F)cc23)c1` [Compound 4], the figures for the EC50 in data set [1] (setting [6]) and in data set [2] (setting [7]) were 0.82 µM and over 10 µM, respectively. In addition, the EC90 in data set [1] (setting [6]) is 1.5 µM; in data set [2] (setting [7]), over 10 µM. In addition, the CC50 in data set [3], in data set [4] and in data set [5] was over 10 µM throughout.
